For one test, the target named is Cholinesterase (Homo sapiens, UniProt P06276).
The next test addresses T1, Acetylcholinesterase (Rattus norvegicus, UniProt P37136).
T1 sequence (P37136 whole entry): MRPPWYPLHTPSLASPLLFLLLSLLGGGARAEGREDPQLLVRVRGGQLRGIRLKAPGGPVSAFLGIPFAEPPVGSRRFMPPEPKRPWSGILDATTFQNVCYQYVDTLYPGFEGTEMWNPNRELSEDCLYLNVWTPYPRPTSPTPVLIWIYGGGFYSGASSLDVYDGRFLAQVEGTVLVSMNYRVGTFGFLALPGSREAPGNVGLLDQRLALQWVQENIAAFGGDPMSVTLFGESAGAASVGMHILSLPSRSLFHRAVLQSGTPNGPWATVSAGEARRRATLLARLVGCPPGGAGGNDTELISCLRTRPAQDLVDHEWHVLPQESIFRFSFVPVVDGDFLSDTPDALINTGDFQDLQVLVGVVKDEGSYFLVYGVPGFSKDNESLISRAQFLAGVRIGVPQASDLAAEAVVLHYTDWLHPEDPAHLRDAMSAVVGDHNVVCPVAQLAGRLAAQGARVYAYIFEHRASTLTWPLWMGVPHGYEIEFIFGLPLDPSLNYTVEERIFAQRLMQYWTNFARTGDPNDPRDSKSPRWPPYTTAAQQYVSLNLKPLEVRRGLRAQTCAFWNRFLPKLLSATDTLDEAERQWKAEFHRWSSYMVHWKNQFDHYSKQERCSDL
Description: biochemical.

Cholinesterase, sequence (P06276 whole entry): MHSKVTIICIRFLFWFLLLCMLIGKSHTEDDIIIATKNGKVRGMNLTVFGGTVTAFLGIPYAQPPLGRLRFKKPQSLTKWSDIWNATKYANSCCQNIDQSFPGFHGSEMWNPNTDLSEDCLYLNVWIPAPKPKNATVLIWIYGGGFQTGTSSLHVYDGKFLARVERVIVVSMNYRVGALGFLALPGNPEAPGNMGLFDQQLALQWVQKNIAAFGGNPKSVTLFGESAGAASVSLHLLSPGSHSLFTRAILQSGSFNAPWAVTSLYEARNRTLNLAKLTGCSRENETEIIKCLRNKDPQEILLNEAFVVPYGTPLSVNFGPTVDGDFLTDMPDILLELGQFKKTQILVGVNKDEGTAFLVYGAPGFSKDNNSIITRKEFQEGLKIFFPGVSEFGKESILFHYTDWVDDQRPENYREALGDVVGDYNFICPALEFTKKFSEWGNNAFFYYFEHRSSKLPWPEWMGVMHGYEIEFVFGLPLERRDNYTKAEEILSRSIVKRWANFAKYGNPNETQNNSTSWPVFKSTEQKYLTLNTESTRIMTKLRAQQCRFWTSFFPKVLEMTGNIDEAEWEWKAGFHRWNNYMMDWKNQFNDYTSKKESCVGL

As to `c1ccc2c(NCCCCCCNc3c4c(nc5ccccc35)CCCC4)c3c(nc2c1)CCCC3`, the figures for the IC50 against Cholinesterase and against Acetylcholinesterase were 83 nM and 1.4 nM, respectively.
In the same order, the values of `c1ccc2c(NCCCCCCCNc3c4c(nc5ccccc35)CCC4)c3c(nc2c1)CCC3` are 328 nM and 75 nM.
`c1cnc2nc3c(c(NCCCCCCNc4c5c(nc6ncccc46)CCCC5)c2c1)CCCC3` yielded an IC50 on Cholinesterase of 93 nM. This lies in the double-digit nanomolar range.
On the same count and under the same terms, under `c1cnc2nc3c(c(NCCCCCCCCNc4c5c(nc6ncccc46)CCCC5)c2c1)CCCC3` stands 23 nM.
With `Clc1ccc2c(NCCCCCCCNc3c4c(nc5cc(Cl)ccc35)CCCC4)c3c(nc2c1)CCCC3`, the IC50 came out at 26 nM against Cholinesterase and 0.07 nM at Acetylcholinesterase.
Regarding `Clc1ccc2c(NCCCCCCNc3c4c(nc5cc(Cl)ccc35)CCCC4)c3c(nc2c1)CCCC3`, the IC50 on Cholinesterase was 312 nM; against Acetylcholinesterase, 0.6 nM.
In the same order, the values of `Fc1ccc2c(NCCCCCCCNc3c4c(nc5cc(F)ccc35)CCCC4)c3c(nc2c1)CCCC3` are 257 nM and 0.6 nM.
For `c1ccc2c(NCCCCCCCCNc3c4c(nc5ccccc35)CCC4)c3c(nc2c1)CCC3`, at Cholinesterase, the IC50 came to 165 nM.
With `Fc1ccc2c(NCCCCCCNc3c4c(nc5cc(F)ccc35)CCCC4)c3c(nc2c1)CCCC3`, the IC50 at Cholinesterase stood at 45 nM; against Acetylcholinesterase it was 0.9 nM.
On Cholinesterase, `c1ccc2c(NCCCCCCCNc3c4c(nc5ccccc35)CCCCC4)c3c(nc2c1)CCCCC3` came in with an IC50 of 2.6 nM.
In the case of `Fc1ccc2c(NCCCCCCCCNc3c4c(nc5cc(F)ccc35)CCCC4)c3c(nc2c1)CCCC3`, the IC50 at Cholinesterase worked out at 164 nM; at Acetylcholinesterase it was 0.7 nM.
In the same order, the values of `c1ccc2c(NCCCCCCNc3c4c(nc5ccccc35)CCCCC4)c3c(nc2c1)CCCCC3` are 3.3 nM and 2.5 nM.
On to `c1ccc2c(NCCCCCCNc3c4c(nc5ccccc35)CCC4)c3c(nc2c1)CCC3`, for which the IC50 on Cholinesterase was 273 nM.
Same read-out and setting: under `c1ccc2c(NCCCCCCCCNc3c4c(nc5ccccc35)CCCCC4)c3c(nc2c1)CCCCC3` stands 3.8 nM.
Consider `c1cnc2nc3c(c(NCCCCCCCNc4c5c(nc6ncccc46)CCCC5)c2c1)CCCC3`, for which the IC50 is 59 nM against Cholinesterase and 1.3 nM against Acetylcholinesterase.
With `c1ccc2c(NCCCCCCCCNc3c4c(nc5ccccc35)CCCC4)c3c(nc2c1)CCCC3`, the IC50 stood at 53 nM at Cholinesterase and 1.6 nM against Acetylcholinesterase.
Compound `c1ccc2c(NCCCCCCCNc3c4c(nc5ccccc35)CCCC4)c3c(nc2c1)CCCC3` yielded an IC50 at Cholinesterase of 54 nM. This counts as double-digit nanomolar.

The term IC50 denotes the point on the concentration scale where inhibition reaches its midpoint. Higher therefore signals weaker potency.

The values above are taken from ChEMBL document CHEMBL1135422 (J Med Chem, 2002).
